Source: US20230081426A1, “COMPOUNDS AND METHODS FOR KRAS MODULATION AND INDICATIONS THEREFOR” (Plexxikon Inc., priority 2020, published 2023)

Tests used:
[1] = biological target: T1, G12D-mutant human KRAS (amino acid residues 1-188) (Homo sapiens, UniProt P01116, G12D); experiment: KRAS Binding Disruption Assay (AlphaScreen; biotinylated KRpep-2d analogue or RAF1-RBD), G12D; conditions: KRAS G12D; geometric mean; read-out: KRAS GMean IC50 (uM) MUTATION: G12D
T1 construct: G12D or G12C-mutant human KRAS (amino acid residues 1-188) with FLAG tag; made in house; host or cells: E. coli
T1 sequence (P01116 1-188 isoform P01116-2 G12D): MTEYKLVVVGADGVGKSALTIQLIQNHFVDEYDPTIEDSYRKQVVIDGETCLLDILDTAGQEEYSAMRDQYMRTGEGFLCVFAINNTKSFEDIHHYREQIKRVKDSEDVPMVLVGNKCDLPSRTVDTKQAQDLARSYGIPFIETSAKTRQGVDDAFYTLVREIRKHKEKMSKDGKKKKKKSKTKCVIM
In short: (§1)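 Mutant KRAS (5-20 nM) incubated 1 h at 25° C with test compound and 5-20 nM biotinylated KRpep-2d analogue or RAF1-RBD in 20 mM HEPES pH 7.5, 100 mM NaCl, 5 mM MgCl2, 0.01% Tween-20, 0.01% BSA.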

[2] = biological target: T2, G12C-mutant human KRAS (amino acid residues 1-188) (Homo sapiens, UniProt P01116, G12C); experiment: KRAS Binding Disruption Assay (AlphaScreen; biotinylated KRpep-2d analogue or RAF1-RBD), G12C; conditions: geometric mean, read-out: KRAS GMean IC50 (uM) MUTATION: G12C
T2 construct: G12D or G12C-mutant human KRAS (amino acid residues 1-188) with FLAG tag; made in house; host or cells: E. coli
T2 sequence (P01116 1-188 isoform P01116-2 G12C): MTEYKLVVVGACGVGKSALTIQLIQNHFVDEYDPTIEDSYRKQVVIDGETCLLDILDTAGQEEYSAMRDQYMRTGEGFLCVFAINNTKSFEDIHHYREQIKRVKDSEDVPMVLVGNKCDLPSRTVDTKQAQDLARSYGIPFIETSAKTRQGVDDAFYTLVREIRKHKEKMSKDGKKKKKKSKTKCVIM
In short: as §1

Row | SMILES | IC50 [1] | IC50 [2]
1 | OCC1(CO)CN(c2nc(N3C[C@H]4CC[C@@H](C3)N4)c3ccc(-c4cc(O)cc5ccccc45)c(F)c3n2)C1 [P-0686, (1-(4-((1R,5S)-3,8-diazabicyclo[3.2.1]octan-3-yl)-8-fluoro-7-(3-hydroxynaphthalen-1-yl)quinazolin-2-yl)azetidine-3,3-diyl)dimethanol] | 0.0001 to 10 µM | 100 to 1000 µM
2 | Oc1cc(-c2ccc3c(N4C[C@H]5CC[C@@H](C4)N5)nc(N4C[C@@H](O)[C@@H](O)C4)nc3c2F)c2ccccc2c1 [P-0687, (3S,4R)-1-(4-((1R,5S)-3,8-diazabicyclo[3.2.1]octan-3-yl)-8-fluoro-7-(3-hydroxynaphthalen-1-yl)quinazolin-2-yl)pyrrolidine-3,4-diol] | 0.0001 to 10 µM | 100 to 1000 µM
3 | Oc1cc(-c2ccc3c(N4CC5CCC(C4)N5)nc(OCC4CCCC4O)nc3c2F)c2ccccc2c1 [P-0688, 4-(4-((1R,5S)-3,8-diazabicyclo[3.2.1]octan-3-yl)-8-fluoro-2-((2-hydroxycyclopentyl)methoxy)quinazo-lin-7-yl)naphthalen-2-ol] | 0.0001 to 10 µM | 10 to 100 µM
4 | Oc1cc(-c2ccc3c(N4C[C@H]5CC[C@@H](C4)N5)nc(OCCn4cncn4)nc3c2F)c2ccccc2c1 [P-0689, 4-(2-(2-(1H-1,2,4-triazol-1-yl)ethoxy)-4-((1R,5S)-3,8-diazabicyclo[3.2.1]octan-3-yl)-8-fluoroquinazolin-7-yl)naphthalen-2-] | 0.0001 to 10 µM | 10 to 100 µM
5 | Oc1cc(-c2ccc3c(N4C[C@H]5CC[C@@H](C4)N5)nc(OCCn4cccn4)nc3c2F)c2ccccc2c1 [P-0690, 4-(2-(2-(1H-pyrazol-1-yl)ethoxy)-4-((1R,5S)-3,8-diazabicyclo[3.2.1]octan-3-yl)-8-fluoroquinazolin-7-yl)naphthalen-2-ol] | 0.0001 to 10 µM | 10 to 100 µM
6 | Oc1cc(-c2ccc3c(N4C[C@H]5CC[C@@H](C4)N5)nc(OCCn4cccc4)nc3c2F)c2ccccc2c1 [P-0691, 4-(2-(2-(1H-pyrrol-1-yl)ethoxy)-4-((1R,5S)-3,8-diazabicyclo[3.2.1]octan-3-yl)-8-fluoroquinazolin-7-yl)naphthalen-2-ol] | 0.0001 to 10 µM | 10 to 100 µM
7 | CC(=O)NCCOc1nc(N2C[C@H]3CC[C@@H](C2)N3)c2ccc(-c3cc(O)cc4ccccc34)c(F)c2n1 [P-0692, N-(2-((4-((1R,5S)-3,8-diazabicyclo[3.2.1]octan-3-yl)-8-fluoro-7-(3-hydroxynaphthalen-1-yl)quinazolin-2-yl)oxy)ethyl)acetamide] | 0.0001 to 10 µM | 10 to 100 µM
8 | O=C1CCCN1CCOc1nc(N2C[C@H]3CC[C@@H](C2)N3)c2ccc(-c3cc(O)cc4ccccc34)c(F)c2n1 [P-0693, 1-(2-((4-((1R,5S)-3,8-diazabicyclo[3.2.1]octan-3-yl)-8-fluoro-7-(3-hydroxynaphthalen-1-yl)quinazolin-2-yl)oxy)ethyl)pyrrolidin-2-one] | 0.0001 to 10 µM | 10 to 100 µM
9 | O=C1CCC(=O)N1CCOc1nc(N2C[C@H]3CC[C@@H](C2)N3)c2ccc(-c3cc(O)cc4ccccc34)c(F)c2n1 [P-0694, 1-(2-((4-((1R,5S)-3,8-diazabicyclo[3.2.1]octan-3-yl)-8-fluoro-7-(3-hydroxynaphthalen-1-yl)quinazolin-2-yl)oxy)ethyl)pyrrolidine-2,5-dione] | 0.0001 to 10 µM | 10 to 100 µM
10 | Oc1cc(-c2ccc3c(N4C[C@H]5CC[C@@H](C4)N5)nc(OCCN4CCOCC4)nc3c2F)c2ccccc2c1 [P-0695, 4-(4-((1R,5S)-3,8-diazabicyclo[3.2.1]octan-3-yl)-8-fluoro-2-(2-morpholinoethoxy)quinazolin-7-yl)naphthalen-2-ol] | 0.0001 to 10 µM | 10 to 100 µM
11 | Oc1cc(-c2ccc3c(N4C[C@H]5CC[C@@H](C4)N5)nc(OCCN4CCCC4)nc3c2F)c2ccccc2c1 [P-0696, 4-(4-((1R,5S)-3,8-diazabicyclo[3.2.1]octan-3-yl)-8-fluoro-2-(2-(pyrrolidin-1-yl)ethoxy)quinazolin-7-yl)naphthalen-2-ol] | 0.0001 to 10 µM | 10 to 100 µM
12 | Fc1c(-c2c[nH]c3cccc(C4CC4)c23)ccc2c(N3C[C@H]4CC[C@@H](C3)N4)nc(OCC34CCCN3CCC4)nc12 [P-0697, 4-((1R,5S)-3,8-diazabicyclo[3.2.1]octan-3-yl)-7-(4-cyclopropyl-1H-indol-3-yl)-8-fluoro-2-((tetrahydro-1H-pyrrolizin-7a(5H)-yl)methoxy)quinazoline] | 0.0001 to 10 µM | 0.0001 to 10 µM
13 | CCc1cccc2[nH]cc(-c3ccc4c(N5C[C@H]6CC[C@@H](C5)N6)nc(OCC56CCCN5CCC6)nc4c3)c12 [P-0698, 4-((1R,5S)-3,8-diazabicyclo[3.2.1]octan-3-yl)-7-(4-ethyl-1H-indol-3-yl)-2-((tetrahydro-1H-pyrrolizin-7a(5H)-yl)methoxy)quinazoline] | 0.0001 to 10 µM | 10 to 100 µM
14 | CCc1cccc2[nH]cc(-c3ccc4c(N5C[C@H]6CC[C@@H](C5)N6)nc(OCC56CCCN5CCC6)nc4c3F)c12 [P-0699, 4-((1R,5S)-3,8-diazabicyclo[3.2.1]octan-3-yl)-7-(4-ethyl-1H-indol-3-yl)-8-fluoro-2-((tetrahydro-1H-pyrrolizin-7a(5H)-yl)methoxy)quinazoline] | 0.0001 to 10 µM | 0.0001 to 10 µM
15 | Clc1cccc2[nH]cc(-c3ccc4c(N5C[C@H]6CC[C@@H](C5)N6)nc(OCC56CCCN5CCC6)nc4c3)c12 [P-0700, 4-((1R,5S)-3,8-diazabicyclo[3.2.1]octan-3-yl)-7-(4-chloro-1H-indol-3-yl)-2-((tetrahydro-1H-pyrrolizin-7a(5H)-yl)methoxy)quinazoline] | 0.0001 to 10 µM | 10 to 100 µM
16 | Oc1cc(-c2ccc3c(N4C[C@H]5CC[C@@H](C4)N5)nc(NCC4CCOCC4)nc3c2F)c2ccccc2c1 [P-0701, 4-(4-((1R,5S)-3,8-diazabicyclo[3.2.1]octan-3-yl)-8-fluoro-2-(((tetrahydro-2H-pyran-4-yl)methyl)amino)quinazolin-7-yl)naphthalen-2-ol] | 0.0001 to 10 µM | 100 to 1000 µM
17 | CS(=O)(=O)NC1CN(c2nc(N3C[C@H]4CC[C@@H](C3)N4)c3ccc(-c4cc(O)cc5ccccc45)c(F)c3n2)C1 [P-0702, N-(1-(4-((1R,5S)-3,8-diazabicyclo[3.2.1]octan-3-yl)-8-fluoro-7-(3-hydroxynaphthalen-1-yl)quinazolin-2-yl)azetidin-3-yl)methanesulfonamide] | 0.0001 to 10 µM | 10 to 100 µM
18 | Oc1cc(-c2ccc3c(N4C[C@H]5CC[C@@H](C4)N5)nc(N4CC(N5CCOCC5)C4)nc3c2F)c2ccccc2c1 [P-0703, 4-(4-((1R,5S)-3,8-diazabicyclo[3.2.1]octan-3-yl)-8-fluoro-2-(3-morpholinoazetidin-1-yl)quinazolin-7-yl)naphthalen-2-ol] | 0.0001 to 10 µM | 10 to 100 µM
19 | CN(C)C1CCN(c2nc(N3C[C@H]4CC[C@@H](C3)N4)c3ccc(-c4cc(O)cc5ccccc45)c(F)c3n2)C1 (stereo partly drawn) [P-0704, 4-(4-((1R,5S)-3,8-diazabicyclo[3.2.1]octan-3-yl)-2-(3-(dimethylamino)pyrrolidin-1-yl)-8-fluoroquinazolin-7-yl)naphthalen-2-ol] | 0.0001 to 10 µM | 10 to 100 µM
20 | CN1CCC2CN(c3nc(N4C[C@H]5CC[C@@H](C4)N5)c4ccc(-c5cc(O)cc6ccccc56)c(F)c4n3)CC21 (stereo partly drawn) [P-0705, 4-(4-((1R,5S)-3,8-diazabicyclo[3.2.1]octan-3-yl)-8-fluoro-2-(1-methylhexahydropyrrolo[3,4-b]pyrrol-5(1H)-yl)quinazolin-7-yl)naphthalen-2-ol] | 0.0001 to 10 µM | 10 to 100 µM
21 | Oc1cc(-c2ccc3c(N4C[C@H]5CC[C@@H](C4)N5)nc(N4CC(O)(C(F)(F)F)C4)nc3c2F)c2ccccc2c1 [P-0706, 1-(4-((1R,5S)-3,8-diazabicyclo[3.2.1]octan-3-yl)-8-fluoro-7-(3-hydroxynaphthalen-1-yl)quinazolin-2-yl)-3-(trifluoromethyl)azetidin-3-ol] | 0.0001 to 10 µM | 100 to 1000 µM
22 | CCc1c(F)ccc2[nH]cc(-c3ccc4c(N5C[C@H]6CC[C@@H](C5)N6)nc(OCC56CCCN5CCC6)nc4c3F)c12 [P-0709, 4-((1R,5S)-3,8-diazabicyclo[3.2.1]octan-3-yl)-7-(4-ethyl-5-fluoro-1H-indol-3-yl)-8-fluoro-2-((tetrahydro-1H-pyrrolizin-7a(5H)-yl)methoxy)quinazoline] | 0.0001 to 10 µM | 0.0001 to 10 µM
23 | CCc1c(F)ccc2[nH]cc(-c3c(F)cc4c(N5C[C@H]6CC[C@@H](C5)N6)nc(OCC56CCCN5CCC6)nc4c3F)c12 [P-0710, 4-((1R,5S)-3,8-diazabicyclo[3.2.1]octan-3-yl)-7-(4-ethyl-5-fluoro-1H-indol-3-yl)-6,8-difluoro-2-((tetrahydro-1H-pyrrolizin-7a(5H)-yl)methoxy)quinazoline] | 0.0001 to 10 µM | 0.0001 to 10 µM
24 | FC(F)(F)c1cccc2[nH]cc(-c3ccc4c(N5C[C@H]6CC[C@@H](C5)N6)nc(OCC56CCCN5CCC6)nc4c3)c12 [P-0711, 4-((1R,5S)-3,8-diazabicyclo[3.2.1]octan-3-yl)-2-((tetrahydro-1H-pyrrolizin-7a(5H)-yl)methoxy)-7-(4-(trifluoromethyl)-1H-indol-3-yl)quinazoline] | 0.0001 to 10 µM | 0.0001 to 10 µM
25 | Cc1cccc2[nH]nc(-c3ccc4c(N5C[C@H]6CC[C@@H](C5)N6)nc(OC[C@@H]5CCCN5C)nc4c3F)c12 [P-0712, 4-((1R,5S)-3,8-diazabicyclo[3.2.1]octan-3-yl)-8-fluoro-7-(4-methyl-1H-indazol-3-yl)-2-(((S)-1-methylpyrrolidin-2-yl)methoxy)quinazoline] | 10 to 100 µM | 10 to 100 µM
